Read-outs that look alike come from different tables or passages of the source.
Target: full length MPS1 (Homo sapiens (Human), UniProt P33981)
Assay: Measurement of inhibition of MPS1 kinase (Caliper EZ reader mobility shift assay)
Type: biochemical
Experimental: Measurement of Inhibition of MPS1 Kinase
(5 μM), ATP(10 μM), either DMSO (1% v/v) or the test compound (in the range 0.25 nM-100 μM in 1% DMSO) and assay buffer (50 mM HEPES (pH 7.0), 0.02% NaN3, 0.01% BSA, 0.1 mM Orthovandate, […], 1 μM DTT, Roche protease inhibitor). The reaction was carried out for 60 min at room temperature and stopped by the addition of buffer (10 μl) containing 20 mM EDTA, 0.05% (v/v) Brij-35, in 0.1M HEPES-buffered saline (Free acid, Sigma, UK). The plate was read on a Caliper EZ reader II (Caliper Life Sciences).
The reader provides a Software package (‘Reviewer’) which converts the peak heights into % conversion by measuring both product and substrate peak and also allows selection of control well which represent 0% and 100% inhibition respectively. The % inhibition of the compounds is calculated relative to the means of selected control wells. IC50s are determined by testing the compounds at a range of concentrations from 0.25 nM-100 μM. The % inhibitions at each concentration are then fitted to a 4 parameter logistic fit: y=(a+((b−a)/(1+((c/x^d)))) where a=asym min, b=asym max, c=IC50 and d=hill coefficient

[1] = full length MPS1 12.5 nM or 3 nM, H236 peptide 5 μM, ATP 10 μM, 60 min at room temperature, read-out: MPS1 IC50

Sequence of full length MPS1 (P33981 whole entry): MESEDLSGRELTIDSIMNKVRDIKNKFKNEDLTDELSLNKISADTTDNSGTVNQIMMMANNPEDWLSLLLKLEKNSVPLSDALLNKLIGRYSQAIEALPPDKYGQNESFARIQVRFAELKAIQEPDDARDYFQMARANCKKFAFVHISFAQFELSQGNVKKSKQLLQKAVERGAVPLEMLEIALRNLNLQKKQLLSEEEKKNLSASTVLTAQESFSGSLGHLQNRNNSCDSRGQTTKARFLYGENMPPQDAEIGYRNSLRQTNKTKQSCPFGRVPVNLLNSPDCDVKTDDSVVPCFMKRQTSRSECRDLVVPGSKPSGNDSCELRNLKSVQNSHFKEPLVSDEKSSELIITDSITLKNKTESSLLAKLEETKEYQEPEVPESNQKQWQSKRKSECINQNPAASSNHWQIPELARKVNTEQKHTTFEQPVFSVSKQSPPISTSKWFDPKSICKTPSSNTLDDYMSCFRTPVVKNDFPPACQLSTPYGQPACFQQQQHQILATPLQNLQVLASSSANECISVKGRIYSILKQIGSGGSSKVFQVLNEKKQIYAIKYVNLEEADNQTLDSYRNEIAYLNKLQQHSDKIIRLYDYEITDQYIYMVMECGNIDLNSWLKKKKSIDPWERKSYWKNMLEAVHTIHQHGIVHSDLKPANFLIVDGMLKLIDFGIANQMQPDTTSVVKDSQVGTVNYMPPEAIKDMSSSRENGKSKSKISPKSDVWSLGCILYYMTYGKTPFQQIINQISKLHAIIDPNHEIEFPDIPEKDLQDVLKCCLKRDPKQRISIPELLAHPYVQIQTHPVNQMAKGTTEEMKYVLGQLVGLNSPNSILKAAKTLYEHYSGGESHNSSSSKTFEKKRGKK

Row | SMILES | IC50 [nM] | IC50 [1] [nM]
1 | COc1cc(-c2cnc(C)n2C)ccc1Nc1cc2cc(-c3cnn(CC(O)CO)c3)ccc2cn1 (racemic) [Example 109, Racemic 3-(4-(3-((4-(1,2-Dimethyl-1H-imidazol-5-yl)-2-methoxyphenyl)amino)isoquinolin-6-yl)-1H-pyrazol-1-yl)propane-1,2-diol] | 3 | 
2 | CNC(=O)c1ccc2cnc(Nc3ccc(-c4cnn(C)c4)cc3OC)cc2n1 [Example 108, 7-(2-Methoxy-4-(1-methyl-1H-pyrazol-4-yl)phenylamino)-N-methyl-1,6-naphthyridine-2-carboxamide] |  | 7
3 | COCCn1cc(-c2ccc3cnc(Nc4ccc(-c5cnn(C)c5CO)cc4OC)cc3c2)cn1 [Example 32, (4-(3-Methoxy-4-((6-(1-(2-methoxyethyl)-1H-pyrazol-4-yl)isoquinolin-3-yl)amino)phenyl)-1-methyl-1H-pyrazol-5-yl)methanol] |  | 3
